{"source": "paper PMC6985109", "about": "“Cellular apoptosis and necrosis as therapeutic targets for novel Eugenol Tosylate Congeners against Candida albicans” (Scientific Reports, 2020)", "key": {"Candida albicans 4106": {"test_system": "Candida albicans 4106", "experiment": "Broth microdilution antifungal susceptibility (MIC/MFC)", "assay_type": "cell-based", "conditions": "strain 4106, FLC resistant", "description": "(§1) In this study, 10 clinical Candida albicans isolates, comprising of 5 fluconazole susceptible and 5 fluconazole resistant, were used. C. albicans SC5314 was also used as a control laboratory strain. Clinical strains used in this study were stored at −80 °C supplemented with 20% glycerol in the Department of Clinical Microbiology and Infectious Diseases, University of the Witwatersrand, Johannesburg and were previously collected under the ethical clearance number M000402, obtained from the Human Research Ethics Committee, University of the Witwatersrand. For experimental purpose each strain from glycerol stock was recovered on Sabouraud Dextrose (SDA) agar plates at 37 °C for 24 h.\n(§2) Minimum Inhibitory Concentration (MIC) and Minimum Fungicidal Concentrations (MFC) of all newly synthesized eugenol-tosylate congeners (ETC-1–ETC-7) against C. albicans strains were determined by broth microdilution assay in accordance with the approved guidelines described by Clinical and Laboratory Standards Institute (CLSI) guidelines M27-A[38]. The test compounds were prepared in 1% DMSO to a stock concentration of 8192 µg/ml. Two-fold dilutions of test compounds (100 µL) were prepared in 96-well flat-bottom microtiter plates, inoculated with 100 µl of inoculum (1 × 10^6 cells/mL) and incubated at 37 °C for 24 hours. In every set of experiment, positive control (fluconazole), negative vehicle control (1% DMSO) and culture control (media and cells only) were included. MIC’s were determined visibly as the lowest concentration of the test compounds that inhibited growth of test organism. To determine MFC, each well without visible growth was sub-cultured onto agar plates. Concentration in the first well with no growth on plate was taken as MFC. […] The experiment was performed in triplicate to validate the results."}, "Candida albicans 4122": {"test_system": "Candida albicans 4122", "experiment": "Broth microdilution antifungal susceptibility (MIC/MFC)", "assay_type": "cell-based", "conditions": "strain 4122, FLC resistant", "description": "as §1, §2"}, "Candida albicans 4179": {"test_system": "Candida albicans 4179", "experiment": "Broth microdilution antifungal susceptibility (MIC/MFC)", "assay_type": "cell-based", "conditions": "strain 4179, FLC susceptible", "description": "as §1, §2"}, "Candida albicans 4180": {"test_system": "Candida albicans 4180", "experiment": "Broth microdilution antifungal susceptibility (MIC/MFC)", "assay_type": "cell-based", "conditions": "strain 4180, FLC susceptible", "description": "as §1, §2"}, "Candida albicans 4563": {"test_system": "Candida albicans 4563", "experiment": "Broth microdilution antifungal susceptibility (MIC/MFC)", "assay_type": "cell-based", "conditions": "strain 4563, FLC susceptible", "description": "as §1, §2"}, "Candida albicans SC5314": {"test_system": "Candida albicans SC5314", "experiment": "Broth microdilution antifungal susceptibility (MIC/MFC)", "assay_type": "cell-based", "conditions": "SC5314, FLC susceptible", "description": "as §1, §2"}, "[1]": {"test_system": "C. albicans 4175, C. albicans 5112 and C. albicans SC5314", "experiment": "TUNEL assay for DNA damage", "assay_type": "cell-based, Candida albicans", "conditions": "0.5 × MIC, 1 × MIC and 2 × MIC, compared to the negative control; dose dependent", "description": "To study the effect of test compounds on apoptotic markers protoplasts were prepared as described previously, with modifications. Briefly, mid-exponential phase cells were harvested and exposed to various concentrations of test compounds (0.5 × MIC, 1 × MIC and 2×MIC) for 3 h. The cells were then washed twice with protoplast buffer- I (1 M sorbitol, 50 mM tris base, 10 mM MgCl2 and 30 mM DTT) and incubated in the same buffer for 15 minutes at 25 °C, followed by centrifugation at 1500 rpm for 5 minutes. Supernatant was removed and cells were incubated with buffer- II (1 M sorbitol, 50 mM tris base, 10 mM MgCl2 and 1 mM DTT) supplemented with lyticase enzyme (≥1 µg/mL) used to digest the cell wall for 1 h at 25 °C. Buffer- II were removed by centrifugation and then cells were incubated with buffer- III (1 M sorbitol, 50 mM tris base and 10 mM MgCl2) for 20 minutes at room temperature. After the incubation cells were again centrifuged at 1500 rpm for 5 minutes and supernatant was discarded. […]\nTUNEL assay was used to detect the DNA damage, a hallmark for late stages of apoptosis. […] Slides were examined by fluorescence microscopy using Zeiss Laser Scanning Confocal Microscope (LSM) 780 (Carl Zeiss Microscopy, Jena, Germany) with an excitation wavelength of 495 nm and emission wavelength of 519 nm. […] Images were further analyzed by using software ImageJ."}, "horse red blood cells": {"test_system": "horse red blood cells", "experiment": "Cytotoxicity by haemolytic assay", "assay_type": "cell-based", "conditions": "2 × MIC, 60 minutes at 37 °C, horse RBCs", "description": "The cytotoxicity of the test compounds was determined on horse red blood cells (NHLS, Johannesburg, South Africa) by testing the haemolytic activity of these compounds using the method described previously, with some modifications. Briefly, in a sterile 15 ml falcon tube 5 ml of horse blood was centrifuged at 2000 × rpm for 10 minutes. The supernatant was discarded, and the cell pellet was washed three times with chilled PBS solution. The final pellet was used to yield a 10% RBC suspension with chilled PBS. The 10% suspension were further diluted to 1:10 in PBS, then 100 µl of this suspension was added to different concentration of test compounds (0.5 × MIC, 1 × MIC and 2 × MIC) in 1.5 ml tubes. The tubes were then incubated for 60 minutes at 37 °C followed by centrifugation at 2000 × rpm for 10 minutes. From each tube, 200 µl of the supernatant was transferred to a flat-bottomed 96-well microtiter plate and absorbance was monitored at 450 nm spectrophotometrically with an iMark microplate reader (Bio-Rad laboratories, CA, USA). Triton X-100 (1%) and PBS were used as positive and negative controls respectively. The percentage of haemolysis was calculated by the following equation: %haemolysis=A450oftestcompoundtreatedsample−A450ofbuffertreatedsample/A450of1%TritonX−100treatedsample−A450ofbuffertreatedsample×100%"}}}
{"smiles": "C=CCc1ccc(OS(=O)(=O)c2ccc(C(=O)O)cc2)c(OC)c1", "note": "[ETC-7, 4-{[2-methoxy-4-(prop-2-en-1-yl)phenoxy]sulfonyl}benzoic acid]", "values": [{"measurement": "MFC", "setting": "Candida albicans 4106", "result": 4, "unit": "µg/mL"}, {"measurement": "MIC", "setting": "Candida albicans 4106; 37 °C, 24 h", "result": 2, "unit": "µg/mL"}, {"measurement": "MFC", "setting": "Candida albicans 4122", "result": 16, "unit": "µg/mL"}, {"measurement": "MIC", "setting": "Candida albicans 4122; 37 °C, 24 h", "result": 8, "unit": "µg/mL"}, {"measurement": "MFC", "setting": "Candida albicans 4179", "result": 4, "unit": "µg/mL"}, {"measurement": "MIC", "setting": "Candida albicans 4179; 37 °C, 24 h", "result": 2, "unit": "µg/mL"}, {"measurement": "MFC", "setting": "Candida albicans 4180", "result": 8, "unit": "µg/mL"}, {"measurement": "MIC", "setting": "Candida albicans 4180; 37 °C, 24 h", "result": 4, "unit": "µg/mL"}, {"measurement": "MFC", "setting": "Candida albicans 4563", "result": 2, "unit": "µg/mL"}, {"measurement": "MIC", "setting": "Candida albicans 4563; 37 °C, 24 h", "result": 1, "unit": "µg/mL"}, {"measurement": "MFC", "setting": "Candida albicans SC5314", "result": 2, "unit": "µg/mL"}, {"measurement": "MIC", "setting": "Candida albicans SC5314; 37 °C, 24 h", "result": 1, "unit": "µg/mL"}, {"measurement": "TUNEL positive nuclei (DNA fragmentation)", "setting": "[1]", "result": "significant increase in proportion of TUNEL positive nuclei"}, {"measurement": "haemolytic activity", "setting": "horse red blood cells", "result": 8.91, "unit": "%"}]}
